Results published in ChEMBL document CHEMBL1201862, “PubChem BioAssay data set” (2004).
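Each compound was tested at five concentrations against cells in 96-well plates for 48 hours. GI50 marks 50% less growth.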 Active and inactive are the calls of the source. No stated cut-off is given here; in the data, active = GI50 up to about 1.1 µM and inactive = higher.

Assays:
Test in all cases: growth of human tumour cells (NCI), 48 h
COLO 205 = tested on: COLO 205
IGROV-1 = tested on: IGROV-1
NCI-H23 = tested on: NCI-H23
A498 = tested on: A498
OVCAR-4 = tested on: OVCAR-4
HOP-92 = tested on: HOP-92
RPMI-8226 = tested on: RPMI-8226
RXF 393 = tested on: RXF 393
U-251 = tested on: U-251
KM12 = tested on: KM12
NCI-H522 = tested on: NCI-H522
CCRF-CEM = tested on: CCRF-CEM
SK-OV-3 = tested on: SK-OV-3
SW-620 = tested on: SW-620
OVCAR-8 = tested on: OVCAR-8
NCI-H226 = tested on: NCI-H226
SR = tested on: SR
ACHN = tested on: ACHN

Row | SMILES | GI50 (COLO 205) | GI50 (IGROV-1) | GI50 (NCI-H23) | GI50 (A498) | GI50 (OVCAR-4) | GI50 (HOP-92) | GI50 (RPMI-8226) | GI50 (RXF 393) | GI50 (U-251) | GI50 (KM12) | GI50 (NCI-H522) | GI50 (CCRF-CEM) | GI50 (SK-OV-3) | GI50 (SW-620) | GI50 (OVCAR-8) | GI50 (NCI-H226) | GI50 (SR) | GI50 (ACHN)
1 | COC(=O)C1CC2(CC3=C1CCCC3)OCCO2 (configuration not stated) | > 100 µM (inactive) | > 100 µM (inactive) | > 100 µM (inactive) | > 100 µM (inactive) | > 100 µM (inactive) | > 100 µM (inactive) | > 100 µM (inactive) | > 100 µM (inactive) | > 100 µM (inactive) | > 100 µM (inactive) | > 100 µM (inactive) | > 100 µM (inactive) | > 100 µM (inactive) | > 100 µM (inactive) | > 100 µM (inactive) | – | – | –
2 | Cc1c(C(=O)C/C(=N/NC(=O)c2ccccc2)C(=O)Nc2ccc(Cl)cc2)[n+]([O-])c2ccccc2[n+]1[O-] | > 100 µM (inactive) | 99.5 µM (inactive) | 38.7 µM (inactive) | > 100 µM (inactive) | > 100 µM (inactive) | – | 80.4 µM (inactive) | 85.1 µM (inactive) | > 100 µM (inactive) | > 100 µM (inactive) | 38.4 µM (inactive) | 32.4 µM (inactive) | > 100 µM (inactive) | 46.2 µM (inactive) | > 100 µM (inactive) | > 100 µM (inactive) | 63.8 µM (inactive) | > 100 µM (inactive)
3 | CCOC(=O)c1ccc(N2C(=O)/C(=C\OC)c3ccccc3C2=O)cc1 | 94.4 µM (inactive) | 25.2 µM (inactive) | 37.2 µM (inactive) | – | 43.6 µM (inactive) | – | 27.8 µM (inactive) | 11.2 µM (inactive) | 22.7 µM (inactive) | 42.6 µM (inactive) | 29 µM (inactive) | – | 5.22 µM (inactive) | 33.8 µM (inactive) | 20 µM (inactive) | 54 µM (inactive) | 30.3 µM (inactive) | 42.4 µM (inactive)
4 | O=C(/C=C/c1ccccc1)NC1C=Nc2ccc(Cl)cc2NC1=O (configuration not stated) | 17.1 µM (inactive) | 15 µM (inactive) | 27.5 µM (inactive) | 21.7 µM (inactive) | 20.5 µM (inactive) | 32.2 µM (inactive) | – | 16.2 µM (inactive) | 18.6 µM (inactive) | 22.2 µM (inactive) | 9.64 µM (inactive) | 3.52 µM (inactive) | 25.1 µM (inactive) | 7.13 µM (inactive) | 29.5 µM (inactive) | 30.8 µM (inactive) | 7.01 µM (inactive) | 24.1 µM (inactive)
5 | CCOc1ccccc1NC(=O)C1=C(C)NC(C)=C(C(=O)Nc2ccccc2OCC)C1c1ccc(NC(C)=O)cc1 | 16.7 µM (inactive) | 47.4 µM (inactive) | 31 µM (inactive) | 23.8 µM (inactive) | 43.8 µM (inactive) | 9.62 µM (inactive) | 47.8 µM (inactive) | 20.8 µM (inactive) | 46.2 µM (inactive) | 24.8 µM (inactive) | 6.25 µM (inactive) | 61.4 µM (inactive) | 11.5 µM (inactive) | 35.6 µM (inactive) | 73.5 µM (inactive) | 27.7 µM (inactive) | – | 22.4 µM (inactive)
6 | Cc1ccccc1C(CCCO)C(=O)O (configuration not stated) | > 100 µM (inactive) | > 100 µM (inactive) | > 100 µM (inactive) | > 100 µM (inactive) | > 100 µM (inactive) | > 100 µM (inactive) | > 100 µM (inactive) | > 100 µM (inactive) | > 100 µM (inactive) | > 100 µM (inactive) | > 100 µM (inactive) | > 100 µM (inactive) | > 100 µM (inactive) | > 100 µM (inactive) | > 100 µM (inactive) | – | – | > 100 µM (inactive)
7 | CCN(CC)CCNC(=O)c1nn(C)c(=S)[nH]c1=S | > 100 µM (inactive) | > 100 µM (inactive) | > 100 µM (inactive) | – | > 100 µM (inactive) | > 100 µM (inactive) | > 100 µM (inactive) | > 100 µM (inactive) | > 100 µM (inactive) | > 100 µM (inactive) | > 100 µM (inactive) | > 100 µM (inactive) | > 100 µM (inactive) | > 100 µM (inactive) | > 100 µM (inactive) | > 100 µM (inactive) | > 100 µM (inactive) | > 100 µM (inactive)
8 | N#CC(NNC(=O)c1ccccc1O)c1ccccc1 (configuration not stated) | 33.7 µM (inactive) | 1.13 µM (inactive) | 1.72 µM (inactive) | – | 3.85 µM (inactive) | 0.695 µM (active) | 6.32 µM (inactive) | 1.03 µM (active) | 0.486 µM (active) | 1.61 µM (inactive) | 10.2 µM (inactive) | 0.855 µM (active) | 3.62 µM (inactive) | 8.02 µM (inactive) | 2.81 µM (inactive) | 5.87 µM (inactive) | 0.689 µM (active) | 0.479 µM (active)
9 | CCOC(=O)NC(=O)c1cn(CCN2CCN(C(=O)CCCCCCCCCCC(=O)N3CCN(CCn4cc(C(=O)NC(=O)OCC)c(=O)[nH]c4=O)CC3)CC2)c(=O)[nH]c1=O | > 100 µM (inactive) | > 100 µM (inactive) | > 100 µM (inactive) | > 100 µM (inactive) | > 100 µM (inactive) | > 100 µM (inactive) | > 100 µM (inactive) | – | > 100 µM (inactive) | > 100 µM (inactive) | 86.5 µM (inactive) | > 100 µM (inactive) | > 100 µM (inactive) | > 100 µM (inactive) | > 100 µM (inactive) | > 100 µM (inactive) | > 100 µM (inactive) | > 100 µM (inactive)
10 | CCSC1=C(C)N(/C=N/C(C)(C)C)CC1 | > 100 µM (inactive) | > 100 µM (inactive) | > 100 µM (inactive) | > 100 µM (inactive) | > 100 µM (inactive) | > 100 µM (inactive) | – | > 100 µM (inactive) | > 100 µM (inactive) | > 100 µM (inactive) | > 100 µM (inactive) | > 100 µM (inactive) | > 100 µM (inactive) | 20.5 µM (inactive) | > 100 µM (inactive) | > 100 µM (inactive) | > 100 µM (inactive) | > 100 µM (inactive)
11 | CCCCCC/C=C/CCCCCCCc1cccc(O)c1C(=O)O | > 100 µM (inactive) | 44.9 µM (inactive) | 38.5 µM (inactive) | – | > 100 µM (inactive) | – | 54.2 µM (inactive) | – | 27.3 µM (inactive) | > 100 µM (inactive) | 52.8 µM (inactive) | 39.5 µM (inactive) | 36.3 µM (inactive) | 62.4 µM (inactive) | 50.8 µM (inactive) | – | > 100 µM (inactive) | 85.5 µM (inactive)
12 | On1c(-c2ccccc2)c(-c2c(-c3ccccc3)n(O)c3ccccc23)c2ccccc21 | – | – | 27.3 µM (inactive) | – | 52.1 µM (inactive) | – | – | 20.9 µM (inactive) | 35.5 µM (inactive) | 30.8 µM (inactive) | 22.8 µM (inactive) | 34.3 µM (inactive) | 29.8 µM (inactive) | – | 26.1 µM (inactive) | 17.7 µM (inactive) | – | 29.9 µM (inactive)
13 | O=C(COC(=O)c1cccc2c(=O)c3ccccc3[nH]c12)Nc1ccc(C(=O)O)cc1 | > 100 µM (inactive) | 99.1 µM (inactive) | > 100 µM (inactive) | > 100 µM (inactive) | > 100 µM (inactive) | > 100 µM (inactive) | – | 46.8 µM (inactive) | > 100 µM (inactive) | 47.2 µM (inactive) | 43.7 µM (inactive) | 69.5 µM (inactive) | > 100 µM (inactive) | > 100 µM (inactive) | 78.7 µM (inactive) | > 10 µM (inactive) | 30.8 µM (inactive) | > 100 µM (inactive)
14 | CC(C)(C)CC(C)(C)c1cc2c(O)c(c1)Cc1cc(C(C)(C)CC(C)(C)C)cc(c1O)Cc1cc(C(C)(C)CC(C)(C)C)cc(c1O)Cc1cc(C(C)(C)CC(C)(C)C)cc(c1O)Cc1cc(C(C)(C)CC(C)(C)C)cc(c1O)Cc1cc(C(C)(C)CC(C)(C)C)cc(c1O)C2 | > 100 µM (inactive) | > 100 µM (inactive) | > 100 µM (inactive) | – | > 100 µM (inactive) | > 100 µM (inactive) | > 100 µM (inactive) | > 100 µM (inactive) | > 100 µM (inactive) | > 100 µM (inactive) | > 100 µM (inactive) | > 100 µM (inactive) | – | > 100 µM (inactive) | > 100 µM (inactive) | – | – | > 100 µM (inactive)
15 | CN(C)CC/C(=N\Nc1ccc([N+](=O)[O-])cc1)c1ccccc1 | 14.9 µM (inactive) | 11 µM (inactive) | 13.3 µM (inactive) | 13.2 µM (inactive) | 18.3 µM (inactive) | – | 11 µM (inactive) | 4.5 µM (inactive) | 12.4 µM (inactive) | 9.31 µM (inactive) | 13.9 µM (inactive) | 7.23 µM (inactive) | 16.1 µM (inactive) | 13.4 µM (inactive) | 14 µM (inactive) | – | 3.5 µM (inactive) | 2.61 µM (inactive)
16 | O[C@]12c3ccccc3C1CCCCC2N1CCOCC1 (some centres not stated) | > 100 µM (inactive) | – | > 100 µM (inactive) | – | > 100 µM (inactive) | – | > 100 µM (inactive) | > 100 µM (inactive) | > 100 µM (inactive) | > 100 µM (inactive) | > 100 µM (inactive) | > 100 µM (inactive) | > 100 µM (inactive) | > 100 µM (inactive) | > 100 µM (inactive) | > 100 µM (inactive) | > 100 µM (inactive) | > 100 µM (inactive)
17 | N#Cc1c2c(c(N=P(c3ccccc3)(c3ccccc3)c3ccccc3)n3c1nc1ccccc13)CCCC2 | 11.5 µM (inactive) | 29.2 µM (inactive) | – | 20.2 µM (inactive) | 23.4 µM (inactive) | – | 14.8 µM (inactive) | 46.2 µM (inactive) | 14.4 µM (inactive) | 17.4 µM (inactive) | 14.3 µM (inactive) | 16.7 µM (inactive) | 40.9 µM (inactive) | 20.8 µM (inactive) | 13 µM (inactive) | 3.68 µM (inactive) | – | 15.7 µM (inactive)
